Experimental data as given in US7803764B2, “Amphipathic glycopeptides” (The Arizona Board of Regents on Behalf of the University of …, priority 2004, dated 2010).
Non-standard residues stand in square brackets, D forms with d. No end group written: not given here. *: point of attachment. βGlc = OC[C@H]1O[C@@H](*)[C@H](O)[C@@H](O)[C@@H]1O; Aib = CC(C)(N)C(=O)O; βAla = NCCC(=O)O

Legend:
[1] = molecular target: μ opioid receptor (Homo sapiens, UniProt P35372); assay: opioid receptor binding, μ receptor
[2] = molecular target: δ opioid receptor (Homo sapiens, UniProt P41143); assay: opioid receptor binding, δ receptor
[3] = in vivo antinociception after i.c.v. administration; set-up: species or system mice; conditions: i.c.v., mice; for A50 i.c.v.: antinociception
[4] = helicity by circular dichroism; format: physicochemical; conditions: for % α-helicity: CD, SDS micelles (30 mM), pH = 7.0, 18° C.
Experimental: Circular Dichroism. All of the circular dichroism experiments were carried out on Aviv Associates model 60DS using an Endcal Model RTE4DD water circulator as a temperature-control vehicle. The instrument was calibrated by using d-10-camphorsulphonic acid. The spectra were recorded between 200 and 250 nm by using the continuous mode with a 1.5 nm bandwidth, a three second response and a scan step of 0.5 nm in a cell with a path length of 0.1 cm. Three or five scans were accumulated and averaged for each spectrum. Glycopeptide stock solutions were prepared by weighing the required amount, using Cahn/Ventron Instruments Model 21 automatic analytical electrobalance, to make 1 mL of a 0.5-1.0 mM solution and the pH was adjusted to the desired value. Samples were prepared by diluting the stock solution to 70-80 μM. All observed spectra were baseline-subtracted and smoothed by adjacent average of 5 points using Microcal Origin Ver. 5.0 software (Microcal Software Inc, USA). The molar ellipticities were determined using the formula [θ]=[θ]obs·(MRW)/10·l·C, where [θ]obs observed ellipticity in millidegrees, MRW is the mean residue weight, l is the cell path length in centimeters and C is the glycopeptide concentration in mg/mL. The percent α-helicity was determined by using the formula % helix=[θ]n→π*/−40,000 (1−2.5/n)·100, where n represents the number of amide bonds (including the C-terminal amide) in the glycopeptide and [θ]n→π** is molar ellipticity of n→π* transition band at 222 nm.^55
Conformational Analysis by CD. Circular dichroism (CD) is a powerful and simple tool for identifying secondary structure in both peptides and proteins.^64 All the peptides were subjected to CD analysis in H2O, TFE-H2O mixtures, SDS micelles and phospholipid bicelles. In H2O, a negative band near 200 nm is observed that arises from the π→π* electronic transition and is typical of random coil peptides. […] This behavior is explained as nascent helices.^65 In these nascent helices, helix CD signals could be induced by the addition of TFE.^66 All the glycopeptides gave an increased helix CD signal in TFE. The percentage of helicity increases as TFE concentration increases, but reached a maximum at 30% TFE. The increase in helicity in TFE can be attributed to decreased competition by H2O for hydrogen bonding to the backbone amides. […] In the presence of SDS micelles and anionic bicelles, the band at 200 nm underwent a red shift (higher value) and an additional shoulder appears around 222 nm as a result of the n→π* transition. […] The negative maxima at 222 nm (n→π* transition band) is used to calculate the helical content of polypeptides and proteins. The accepted value for a peptide that is 100% helical is approximately −35,000. It was observed that changes in amplitude of the bands up to 30% depend on length of helix.^67 The amplitude increases as α-helical chain length increases. Therefore, one has to consider the importance of chain-length dependence of the α-helix CD in the quantitative treatment of helix content in proteins and polypeptides. The percentage of helicity is independent of SDS concentration and pH (data not shown). In the presence of zwitterionic bicelles all of the glycopeptides yielded CD spectra similar to that observed in H2O, but anionic bicelles forced them to become more helical. The intensities of the [θ]π→π* band and the [θ]n→π* band are expected to be almost equal for a perfect α-helical peptide. […] A modest blue shift and reduced intensity for the [θ]n→π* transition bands are observed for all the glycopeptides in TFE. […] The glycopeptides 9 (Pro/Glc) and 12 (Pro/Lactose), which differ only by the sugar moiety attached, adopt perfect helices in the presence of SDS micelles and in anionic bicelles. The disaccharide increased the percentage of helicity in all the solvents, relative to the monosaccharide. […] It is remarkable to note that a single amino acid mutation at position 6 produced profound changes in the CD spectra. […]

[5] = helicity by NMR αCH chemical shift index; format: physicochemical
Experimental: NMR Spectroscopy. All NMR spectra were recorded on a Bruker DRX600 600 MHz spectrometer. Glycopeptide concentration for the NMR experiments varied from 2-3 mM. The glycopeptides were prepared in TFE-water solution by dissolving the peptide in 0.6 ml solution of a premixed 30% TFE-water mixture. The micelle samples were prepared by dissolving the glycopeptide and 100 equivalent of perdeuterated SDS in 0.6 ml of H2O/D2O (9:1 ratio by volume). Bicelles were produced from deuterated phospholipids. The zwitterionic bicelles were made by mixing the short chain phospholipid dihexanoyl-sn-glycero-3-phosphatidylcholine-d22 (DHPC) and the long chain 1,2-dimyristoyl-sn-glycero-3-phosphatidylcholine-d54 (DMPC) in the molar ratio of 2:1 in H2O. The […] were prepared by substituting 10 mol % of 1,2-dimyristoyl-sn-glycero-3-phospho-1-glycerol-d54 (DMPG) for DMPC. The glycopeptide to bicelle ratio was 1:25. After the glycopeptide was added to the bicelle solution, the system was submitted to a series o f three freeze/thaw/slight vortex shaking cycles. The pH of the each sample was adjusted to 4.5 by using DCl or NaOD as necessary. TSP (3-(trimethylsilyl)-d4-propionic acid) was added as an internal standard. The experiments in F3CCD2OD/H2O mixtures were at 293 K and for experiments in micelles/bicelles were at 298 or 311 K. Two-dimensional double quantum filtered correlation (DQF-COSY), rotating-frame Overhauser enhancement^56 (ROESY), Nuclear Overhauser enhancement^57 (NOESY), and total correlation spectra^58 (TOCSY) were acquired using standard pulse sequences and processed using XWINNMR (Bruker Inc) and FELIX2000 (Accelrys Inc, San Diego, Calif.), Mixing times for TOCSY spectra were either 80 or 100 ms. Mixing times for ROESY spectra were 150 or 250 ms, and for NOESY spectra were 200 or 300 ms. All experiments were 750 increments in t1, 16/32/64 scans each, 1.5 s relaxation delay, size 2 or 4K, and the spectral processing was with shifted sine bell window multiplications in both dimensions.
αCH Chemical Shift Index. […] At this point there is no accepted random coil αCH values for glycosylated serine, CSI values for this position are uncertain. The conformational shift values for all solvents were obtained using the random coil values described by Wright and co-workers.^72 Although, these reference shifts were obtained at pH=5.0 at 4.2° C., they appear to be very insensitive to the conditions, as very small deviations (±0.04) were observed when random coil values are obtained at pH=7.0 at 35° C. by Wuthrich and co-workers.^68 The quantification of secondary structure based on αCH chemical shifts is neglected in the literature because various contributions cannot be strictly accounted for, such as electrostatic effects, ring current shifts, and other magnetic anisotropies. However, it is possible to make qualitative comparison of helical content between closely related (glyco)peptides. Since the 3rd generation glycopeptides differ by only one amino acid at position 6, the helical content was obtained based on the αCH chemical shift values (Table 3). The method described by Gierasch and co-workers^69a was used. First, the average conformational shift was calculated for each glycopeptide by adding all upfield shifts in the helical regions and dividing by the total number of peptide bonds. Then, to obtain the overall helical content for each glycopeptide, the average conformational shift was divided by 0.35 ppm, which was assigned for 100% helicity. Since, there are no random coil values available for β-Alanine and glycosylated serine residues, they were not included in the calculation. The helicogenic Aib residue lacks an α-proton, and there was no correction included in the calculation for the helicity provided by Aib residue. The helical content obtained by this method correlated with the helical content obtained by CD. […]

[6] = blood-brain barrier uptake / penetration; conditions: mice
[7] = molecular target: mu opioid receptor; assay: opioid receptor assay, format not described (Table 1, µ IC50)
[8] = molecular target: delta opioid receptor; assay: opioid receptor assay, format not described (Table 1, δ IC50)
[9] = solvent Bicelle A (anionic bicelles)

Sequence of δ opioid receptor (P41143 whole entry): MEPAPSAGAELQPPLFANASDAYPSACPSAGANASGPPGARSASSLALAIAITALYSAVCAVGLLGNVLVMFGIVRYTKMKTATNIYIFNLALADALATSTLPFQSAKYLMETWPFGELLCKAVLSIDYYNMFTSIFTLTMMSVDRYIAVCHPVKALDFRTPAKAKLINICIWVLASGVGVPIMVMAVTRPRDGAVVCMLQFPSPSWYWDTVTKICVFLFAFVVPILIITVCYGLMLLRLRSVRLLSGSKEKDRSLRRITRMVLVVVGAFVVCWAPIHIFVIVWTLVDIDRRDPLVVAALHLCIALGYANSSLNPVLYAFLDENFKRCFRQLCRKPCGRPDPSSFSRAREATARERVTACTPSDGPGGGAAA
Sequence of mu opioid receptor (P35372 whole entry): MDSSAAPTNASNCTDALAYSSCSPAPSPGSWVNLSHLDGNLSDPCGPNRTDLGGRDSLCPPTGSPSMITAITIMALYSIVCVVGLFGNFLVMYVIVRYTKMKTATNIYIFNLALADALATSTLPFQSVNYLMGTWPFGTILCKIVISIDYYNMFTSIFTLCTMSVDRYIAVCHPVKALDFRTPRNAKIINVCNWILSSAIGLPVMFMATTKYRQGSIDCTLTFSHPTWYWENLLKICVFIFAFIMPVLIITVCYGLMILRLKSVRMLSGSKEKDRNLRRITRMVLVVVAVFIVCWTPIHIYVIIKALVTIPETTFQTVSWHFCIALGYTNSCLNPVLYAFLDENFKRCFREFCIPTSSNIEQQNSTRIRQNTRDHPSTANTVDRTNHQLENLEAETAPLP
Sequence of μ opioid receptor (P35372 whole entry): as above

## CC(C)C[C@H](NC(=O)CNC(=O)[C@H](CC(C)C)NC(=O)[C@H](Cc1ccccc1)NC(=O)CNC(=O)[C@H](NC(=O)[C@@H](N)Cc1ccc(O)cc1)[C@H](C)O)C(=O)N[C@@H](CC(C)C)C(=O)N[C@@H](CCCCN)C(=O)N[C@@H](CO[C@@H]1O[C@H](CO)[C@@H](O)[C@H](O)[C@H]1O)C(=O)N[C@@H](Cc1ccccc1)C(=O)N[C@@H](C)C(=O)N[C@@H](CCC(=O)O)C(=O)N[C@@H](CO[C@@H]1O[C@H](CO)[C@@H](O)[C@H](O)[C@H]1O)C(=O)N[C@@H](Cc1c[nH]c2ccccc12)C(=O)N[C@@H](CO[C@@H]1O[C@H](CO)[C@@H](O)[C@H](O)[C@H]1O)C(=O)N[C@@H](CC(N)=O)C(=O)N[C@@H](Cc1ccccc1)C(N)=O (relative stereo) [Glycopeptide 6, YtGFLGLLKS*FAES*WS*NF]
[1]
  IC50: 154 nM
[2]
  IC50: 11.9 nM
[3]
  A50 i.c.v.: 0.028 nmol
[4]
  % α-helicity: 37%

## CC(C)C[C@H](NC(=O)[C@H](Cc1ccccc1)NC(=O)CNC(=O)[C@H](NC(=O)[C@@H](N)Cc1ccc(O)cc1)[C@H](C)O)C(=O)NCC(=O)N[C@@H](CCCCN)C(=O)N[C@@H](CO[C@@H]1O[C@H](CO)[C@@H](O)[C@H](O)[C@H]1O)C(=O)N[C@@H](Cc1ccccc1)C(=O)N[C@@H](C)C(=O)N[C@@H](CCC(=O)O)C(=O)N[C@@H](CC(C)C)C(=O)N[C@@H](Cc1c[nH]c2ccccc12)C(=O)N[C@@H](CO[C@@H]1O[C@H](CO)[C@@H](O)[C@H](O)[C@H]1O)C(=O)N[C@@H](CC(N)=O)C(=O)N[C@@H](Cc1ccccc1)C(=O)N[C@@H](CC(C)C)C(=O)N[C@@H](CO[C@@H]1O[C@H](CO)[C@@H](O)[C@H](O)[C@H]1O)C(N)=O (relative stereo) [Glycopeptide 7, YtGFLGKS*FAELWS*NFLS*]
[1]
  IC50: 38.2 nM
[2]
  IC50: 25.6 nM
[3]
  A50 i.c.v.: 0.096 nmol
[4]
  % α-helicity: 15%

## CC(C)C[C@H](NC(=O)[C@H](CO[C@@H]1O[C@H](CO)[C@@H](O)[C@H](O)[C@H]1O)NC(=O)[C@H](CCCCN)NC(=O)[C@H](CC(C)C)NC(=O)[C@H](C)NC(=O)[C@H](CCCCN)NC(=O)[C@H](CCC(=O)O)NC(=O)C(C)(C)NC(=O)[C@H](CC(C)C)NC(=O)[C@H](CC(N)=O)NC(=O)CCNC(=O)[C@H](CC(C)C)NC(=O)[C@H](Cc1ccccc1)NC(=O)CNC(=O)[C@H](NC(=O)[C@@H](N)Cc1ccc(O)cc1)[C@H](C)O)C(N)=O (relative stereo) [Glycopeptide 10, YtGFLβANLBEKALKS*L]
[5]; solvent H2O
  % α-helicity by NMR: 17%
[5]; solvent SDS micelles
  % α-helicity by NMR: 55%
[5]; solvent TFE
  % α-helicity by NMR: 32%
[1]
  IC50: 153 nM
[2]
  IC50: 109 nM
[6]
  BBB uptake: 0.183 microliters per min per gram of cortex
[3]
  A50 i.c.v.: 0.030 nmol
[4]; [9]
  % α-helicity by CD: 27%
[4]; solvent H2O
  % α-helicity by CD: >1%
[4]; solvent SDS micelles
  % α-helicity by CD: 29%
[4]; solvent TFE
  % α-helicity by CD: 22%

## YtGFLGALKS*FAES*LS*NA [Glycopeptide 5]
[4]
  % α-helicity: 58%

## YtGFLGLLKS*FWES*WS*NF [Glycopeptide 8]
[3]; within 2nd generation series
  in vivo potency and duration of action (in words): lowest potency in vivo, but longest duration of action
[4]
  % α-helicity: 39%

## YtGFLPNLBEKALKS**L [Glycopeptide 12]
[5]; solvent H2O
  % α-helicity by NMR: 22%
[5]; solvent SDS micelles
  % α-helicity by NMR: 29%
[5]; solvent TFE
  % α-helicity by NMR: 34%
[4]; [9]
  % α-helicity by CD: 33%
[4]; solvent H2O
  % α-helicity by CD: >1%
[4]; solvent SDS micelles
  % α-helicity by CD: 33%
[4]; solvent TFE
  % α-helicity by CD: 23%

## Y[dT]GFLGKS(βGlc)FAELWS(βGlc)NFLS(βGlc)-NH2 [Glycopeptide 7 (YtGFLGKS*FAELWS*NFLS*)]
[7]
  IC50: 38.2 nM
[8]
  IC50: 25.6 nM

## Y[dT]GFL[βAla]NL[Aib]EKALKS(βGlc)L-NH2 [Glycopeptide 10 (YtGFLβANLBEKALKS*L)]
[7]
  IC50: 153 nM
[8]
  IC50: 109 nM

## Y[dT]GFLGELAS(βGlc)KWFNALES(βGlc)-NH2 [Glycopeptide 2 (YtGFLGELAS*KWFNALES*)]
[7]
  IC50: 144 nM
[8]
  IC50: 9.5 nM

## Y[dT]GFLGGNL[Aib]EKALKS(βGlc)L-NH2 [Glycopeptide 11 (YtGFLGGNLBEKALKS*L)]
[7]
  IC50: 53 nM
[8]
  IC50: 32.5 nM

## Y[dT]GFLGLLKS(βGlc)FAES(βGlc)WS(βGlc)NF-NH2 [Glycopeptide 6 (YtGFLGLLKS*FAES*WS*NF)]
[7]
  IC50: 154 nM
[8]
  IC50: 11.9 nM

## Y[dT]GFLPNL[Aib]EKALKS(βGlc)L-NH2 [Glycopeptide 9 (YtGFLPNLBEKALKS*L)]
[7]
  IC50: 90.8 nM
[8]
  IC50: 6.15 nM
